Source: ChEMBL document CHEMBL5543143, “Potentiating Activity of GmhA Inhibitors on Gram-Negative Bacteria” (J Med Chem, 2024)
Calls of active or inactive are those of the source. No cut-off for these calls is given here.

What was measured:
HepG2 = test: Cytotoxicity against human HepG2 cells incubated overnight by Celltiter aqueous one solution cell proliferation assay; type: functional
Escherichia coli [1] = test: Potentiation of erythromycin induced antibacterial activity against Escherichia coli C7 (018:K1:H7) assessed as erythromycin MIC incubated overnight by two fold serial dilution assay; type: functional
Escherichia coli [2] = test: Antibacterial activity in Escherichia coli C7 (018:K1:H7) assessed as reduction in bacterial growth at 300 uM measured after 24 hrs by time-kill kinetics assay; type: functional, organism-based
Phosphoheptose isomerase = Phosphoheptose isomerase (Escherichia coli (strain K12), UniProt P63224); set-up: species or system K96243
Sequence of Phosphoheptose isomerase (P63224 whole entry, looked up): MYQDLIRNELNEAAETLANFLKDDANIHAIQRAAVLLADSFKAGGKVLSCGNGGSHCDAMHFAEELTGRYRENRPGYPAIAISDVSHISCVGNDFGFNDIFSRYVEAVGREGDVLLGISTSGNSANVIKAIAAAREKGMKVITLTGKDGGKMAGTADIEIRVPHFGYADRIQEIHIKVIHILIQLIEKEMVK

Escherichia coli [3] = test: Potentiation of rifampicin induced antibacterial activity against Escherichia coli C7 (018:K1:H7) assessed as rifampicin MIC incubated overnight by two fold serial dilution assay; type: functional

Row | SMILES | CC50 (HepG2) | MIC (Escherichia coli [1]) | Activity (Escherichia coli [2]) | IC50 (Phosphoheptose isomerase) | MIC (Escherichia coli [3])
1 | O=CN(O)C[C@H](O)[C@H](O)[C@H](O)CCP(=O)(O)O | > 1 mM |  |  |  | 
2 | O=CN(O)C[C@H](O)[C@H](O)[C@H](O)COP(=O)(O)O | > 1 mM | 1 µg/mL | inactive | 2 nM | 0.25 µg/mL
